Test system: AML12
Experiment: Protection against CCl4-induced ferroptosis in mouse AML12 cells assessed as cell viability
Assay type: functional, cell-based

CCOC(=O)c1ccc(NC2CCCCC2)c(N)c1
EC50: 104 nM
